This passage reports MIC results from patent US20070185153A1 (priority 2005, published 2007).

In the assay the test system is panel of Gram-positive organisms and panel of Gram-negative organisms. Put plainly: organism not typed. The assay is classed as cell-based.
Where [1] appears, read: read-out: MIC (minimum inhibitory concentration).

Counter-ions that a name gives are not always drawn. Like-named read-outs stand apart in the source and are kept apart here.

On to `O=c1c(Cl)cc2ncc(F)c3c2n1CC3(O)CN1CCC(NCc2cc3c(cn2)OCCO3)CC1` (racemic) [Example 24, (4R/S)-8-Chloro-4-({4-[(2,3-dihydro[1,4]dioxino[2,3-c]pyridin-7-ylmethyl)amino]-1-piperidinyl}methyl)-3-fluoro-4-hydroxy-4,5-dihydro-7H-pyrrolo[3,2,1-de]-1,5-naphthyridin-7-one dihydrochloride], for which the MIC under setting [1] is at most 4 µg/mL.

As to `O=c1[nH]c2ccccc2nc1CNC1CCN(C[C@]2(O)Cn3c(=O)ccc4ncc(F)c2c43)CC1` [Example 38], under setting [1], the MIC is at most 4 µg/mL.

Consider `O=c1[nH]c(CNC2CCN(C[C@]3(O)Cn4c(=O)ccc5ncc(F)c3c54)CC2)nc2ccccc12` [Example 39], for which the MIC under setting [1] is at most 4 µg/mL.

As for `CC(C)n1nnc2cc(CNC3CCN(C[C@]4(O)Cn5c(=O)ccc6ncc(F)c4c65)CC3)ccc21` [Example 47], under setting [1], the MIC was at most 8 µg/mL.

On to `COc1cnc2ccc(=O)n3c2c1[C@](O)(CN1CCC(NCc2cc4c(cn2)OCCO4)CC1)C3` [Example 65], for which, under setting [1], the MIC is at most 8 µg/mL.

On to `COc1cnc2ccc(=O)n3c2c1[C@](O)(CN1CCC(NCc2cc4c(nn2)OCCO4)CC1)C3` [Example 66], for which the MIC (read-out: MIC values) is at least 16 µg/mL.
